Laboratory results from patent US20170313755A1 (priority 2016, published 2017).
Entries after “also recorded” stand apart in the source; their conditions may differ.

B1: IGF1 (Y^B16L^B17) analog (ligand)
chain 1: GIVDECCFRSCDLRRLEMYCA
chain 2: GPETLCGAELVDALYLVCGDRGFYFNKPT
notes: Two chain analog; also called IGF analog

System: insulin receptor A (IRA) and insulin receptor B (IRB) isoforms
Experiment: not given
Settings: non-covalent addition (in trans); previous work; cited from earlier work

Molecule | antagonism of native insulin by unconjugated peptide (words)
SLEEEWAQIQSEVWGRGSPSYC (synthetic insulin receptor antagonist peptide) [#6Cys] | incapable of antagonizing native insulin

Same assay, conditions: non-covalent addition (in trans); previous work; listed as #6-Cys; cited from earlier work

Molecule | antagonism of native insulin by unconjugated peptide (words)
SLEEEWAQIQSEVWGRGSPSYC (synthetic insulin receptor antagonist peptide) [#6Cys] | incapable of antagonism in vitro

System: insulin receptor A (IRA) and insulin receptor B (IRB) isoforms
Experiment: Insulin receptor phosphorylation assay in receptor transfected HEK293 cells
Format: cell-based, human
Settings: agonism
Method: Color development was stopped 5 min later by adding 0.05 ml 1 N HCl. Absorbance at 450 nm was measured on Titertek Multiscan MCC340 (ThermoFisher, Pittsburgh, Pa.). Absorbance vs. peptide concentration dose response curves were plotted and EC50 values were determined by using Origin software (OriginLab, Northampton, Mass.).
Optical density at 450 nm was graphed as a function of peptide concentration using Origin Pro 9.0 graphing software.

Molecule | agonist (maximal) activity at the insulin receptor isoforms | potency at the insulin receptor isoforms
#6(A1)-Cys-Insulin: B29 modified insulin disulfide-conjugated to 6(A1)Cys ALEEEWAQIQSEVWGRGPSYC (SEQ ID NO: 171) | almost no effect upon bioactivity | 
#6(A2)-Cys-Insulin: B29 modified insulin disulfide-conjugated to 6(A2)Cys SAEEEWAQIQSEVWGRGSPSYC (SEQ ID NO: 172) | restored almost all of the potency and activity | restored almost all of the potency and activity
#6(A3)-Cys-Insulin: B29 modified insulin disulfide-conjugated to 6(A3)Cys SLAEEWAQIQSEVWGRGSPSYC (SEQ ID NO: 173) | little effect on maximal activity | shift the potency
#6(I2)-Cys-Insulin: B29 modified insulin disulfide-conjugated to 6(I2)Cys SIEEEWAQIQSEVWGRGSPSYC (SEQ ID NO: 175) | very similar, low maximal activities | 
#6(Q2)-Cys-Insulin: B29 modified insulin disulfide-conjugated to 6(Q2)Cys SQEEEWAQIQSEVWGRGSPSYC (SEQ ID NO: 180) | without a significant decrease in maximal activity; also recorded: high of maximal activity | shift in potency; also recorded: decrease in potency
#6(V2)-Cys-Insulin: B29 modified insulin disulfide-conjugated to 6(V2)Cys SVEEEWAQIQSEVWGRGSPSYC (SEQ ID NO: 176) | slight increase in maximal activity | 
#6(dL2)-Cys-Insulin: B29 modified insulin disulfide-conjugated to 6(dL2)Cys SdLEEEWAQIQSEVWGRGSPSYC (SEQ ID NO: 174) | low activity | decreased potency
#6(des1-5)-Cys-Insulin: B29 modified insulin disulfide-conjugated to 6(des1-5)Cys WAQIQSEVWGRGSPSYC (SEQ ID NO: 170) | full activity | full potency
#Insulin-Cys-4: B29 modified insulin disulfide-conjugated to Cys4 CGSLDESFYDWFERQLG (SEQ ID NO: 166) | only a small change in maximal activity | a small decrease in potency
modified insulin: native insulin modified with an NHS ester to carry one additional thiol functional group at the B29 lysine | fully activating the insulin receptor isoforms | slightly reduced potency

Same assay, conditions: agonism, both receptor isoforms

Molecule | maximal activity relative to native insulin
#6(F2)-Cys-Insulin: B29 modified insulin disulfide-conjugated to 6(F2)Cys SFEEEWAQIQSEVWGRGSPSYC (SEQ ID NO: 177) | ~50%
#6(W2)-Cys-Insulin: B29 modified insulin disulfide-conjugated to 6(W2)Cys SWEEEWAQIQSEVWGRGSPSYC (SEQ ID NO: 178) | approximately 60%
#6(Y2)-Cys-Insulin: B29 modified insulin disulfide-conjugated to 6(Y2)Cys SYEEEWAQIQSEVWGRGSPSYC (SEQ ID NO: 179) | approximately 70%

Same assay, conditions: conjugate against native insulin

Molecule | antagonism at the insulin receptor isoforms
#4-Cys-Insulin: B29 modified insulin disulfide-conjugated to 4Cys GSLDESFYDWFERQLGC (SEQ ID NO: 167) | some degree of antagonism

Target: T1, human insulin receptor (human, UniProt P06213 28-1382)
T1 construct: whole, on cells; Stood in the assay as plasma membrane fragments on wheat germ agglutinin SPA beads, not as whole cells
Experiment: scintillation proximity competition binding against 125I-insulin, membranes with human insulin receptor
Settings: not given
Method: The affinity of each peptide for the insulin or IGF-1 receptor was measured in a competition binding assay utilizing scintillation proximity technology. […] Non-specifically bound (NSB) radioactivity was measured in the wells with a four-fold concentration excess of “cold” native ligand than the highest concentration in test samples. Total bound radioactivity was detected in the wells with no competitor. Percent specific binding was calculated as following: % Specific Binding=(Bound-NSB/Total bound-NSB)×100. IC50 values were determined by using Origin software (OriginLab, Northampton, Mass.).

Molecule | IC50
B1 | 0.51 nM

System: mice
Experiment: Comparative insulin tolerance tests on mice (acylated insulin analogs)
Format: in vivo
Settings: 27 nmol/kg and 90 nmol/kg; even after 8 hours
Method: The polypeptides were tested at two different concentrations (27 nmol/kg and 90 nmol/kg). The acylated insulins included MIU-41, MIU-36 and MIU-37.
The compounds were tested at two different concentrations (27 nmol/kg and 90 nmol/kg).

Molecule | blood glucose lowering relative to native insulin
[B^1(C16-K0,H5,H10,Y16,L17)26A: A1(N18,N21)] [MIU-36] | more basal and sustained lowered glucose levels
[B^1(H5,H10,Y16,L17)26A: A^1(H8,rEC16-K14,N18,N21)] [MIU-41] | more basal and sustained lowered glucose levels
[B^1(H5,H10,Y16,L17,C16rE-K22)26A: A^1(N18,N21)] [MIU-37] | more basal and sustained lowered glucose levels

System: STZ-mice
Experiment: Blood glucose in STZ diabetic mice after insulin/antagonist peptide conjugates
Format: in vivo
Settings: 10 nmol/kg, mice fasted 2 hours
Method: The peptides were tested in STZ-mice, due to their high fasting blood glucose levels.

Molecule | blood glucose response versus equivalent dose of native insulin
#6(A2)-Cys-Insulin: B29 modified insulin disulfide-conjugated to 6(A2)Cys SAEEEWAQIQSEVWGRGSPSYC (SEQ ID NO: 172) | behaved identically to an equivalent dose of native insulin
